Measured values from patent US9139567B2, “Arylpyrazole ethers as inhibitors of leukotriene A4 hydrolase” (Boehringer Ingelheim International GmbH, priority 2011, dated 2015).

Assays:
[1] = biological target: T1, human LTA4 hydrolase (Homo sapiens, UniProt P09960); experiment: LTA4H enzyme assay (cleavage of Arg-AMC, fluorescence); assay type: biochemical; details: LTA4H enzyme 1 nM, Arg-AMC substrate 50 μM, room temperature 1 h
T1 sequence (P09960 1-611): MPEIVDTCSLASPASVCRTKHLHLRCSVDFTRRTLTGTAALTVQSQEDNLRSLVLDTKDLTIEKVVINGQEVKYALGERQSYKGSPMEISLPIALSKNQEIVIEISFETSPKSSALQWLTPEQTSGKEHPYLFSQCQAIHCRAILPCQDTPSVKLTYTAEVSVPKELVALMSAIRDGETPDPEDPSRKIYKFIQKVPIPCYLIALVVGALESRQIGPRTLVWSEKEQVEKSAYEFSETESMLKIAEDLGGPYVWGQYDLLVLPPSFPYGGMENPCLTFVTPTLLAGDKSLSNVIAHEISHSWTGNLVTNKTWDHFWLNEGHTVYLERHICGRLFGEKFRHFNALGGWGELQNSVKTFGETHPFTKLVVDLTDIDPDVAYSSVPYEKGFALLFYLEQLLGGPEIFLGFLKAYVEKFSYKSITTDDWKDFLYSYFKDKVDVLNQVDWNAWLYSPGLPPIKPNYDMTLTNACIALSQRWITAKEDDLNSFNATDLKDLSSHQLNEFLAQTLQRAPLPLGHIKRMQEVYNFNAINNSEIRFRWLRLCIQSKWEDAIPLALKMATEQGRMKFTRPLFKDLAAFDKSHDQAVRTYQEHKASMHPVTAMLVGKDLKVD
Method: Compounds are assessed for the ability to interact with human LTA4 hydrolase in an enzymatic assay that measures the ability of the enzyme to cleave the peptide bond of arginyl-aminomethylcoumarin (Arg-AMC). LTA4H Enzyme (1 nM final), Arg-AMC substrate (50 μM final), and compound are combined in a reaction buffer (50 mM Tris-HCl (pH 7.5), 100 mM KCl, 0.5% bovine serum albumin) at room temperature for 1 h. The formation of product is assessed by measuring the fluorescence of aminomethylcoumarin product (excitation wavelength 380 nm/emission wavelength 460 nm).

[2] = system: LTB4 production in human whole blood; experiment: LTB4 production inhibition assay in human whole blood (calcimycin-stimulated); assay type: cell-based; details: heparinized human whole blood, 15 min 37° C., calcimycin 20 μM 30 min, plasma LTB4 by HTRF
Method: Compounds of the invention are additionally tested in a human whole blood assay to determine their ability to inhibit the synthesis of LTB4 in a cellular system. Compounds are combined with heparinized human whole blood and incubated for 15 minutes at 37° C. Calcimycin (20 μM final, prepared in phosphate-buffered saline, pH 7.4) is then added and the mixture is incubated for another 30 minutes at 37° C. The samples are centrifuged for 5 min at low speed (1500×g) and the plasma layer is removed. Plasma LTB4 concentrations are then measured using an antibody-based homogenous time-resolved fluorescence method (CisBio, Bedford, Mass.).

Row | IC50 [1] [nM] | IC50 [2] [nM] | SMILES
1 | 0.2 | 52 | c1cc(-c2ccc(Oc3ccc(OCC4COCCN4)cc3)nc2)[nH]n1 (racemic) [Example 16, 3-[(4-{[5-(1H-pyrazol-5-yl)pyridin-2-yl]oxy}phenoxy)methyl]morpholine]
2 | 0.2 | 246 | O=C1CC[C@H](COc2ccc(Oc3ccc(-c4ccn[nH]4)cc3)cc2)N1 [Example 1, (5R)-5-({4-[4-(1H-pyrazol-5-yl)phenoxy]phenoxy}methyl)pyrrolidin-2-one]
3 | 0.2 | 163 | O=C1CC[C@@H](COc2ccc(Oc3ccc(-c4ccn[nH]4)cc3)cc2)N1 [Example 2, (5S)-5-({4-[4-(1H-pyrazol-5-yl)phenoxy]phenoxy}methyl)pyrrolidin-2-one]
4 | 0.2 | 142 | O=C1CC[C@@H](COc2ccc(Oc3ccc(-c4ccn[nH]4)cn3)cc2)N1 [Example 3, (5S)-5-[(4-{[5-(1H-pyrazol-5-yl)pyridin-2-yl]oxy}phenoxy)methyl]pyrrolidin-2-one]
5 | 3.9 | 1040 | c1cc(-c2ccc(Oc3ccc(O[C@@H]4CCOC4)cc3)cc2)[nH]n1 [Example 4, 5-(4-{4-[(3R)-tetrahydrofuran-3-yloxy]phenoxy}phenyl)-1H-pyrazole]
6 | 6.8 | 1350 | c1cc(-c2ccc(Oc3ccc(OCC4CCCO4)cc3)cc2)[nH]n1 (centres unmarked) [Example 5, 5-{4-[4-(tetrahydrofuran-2-ylmethoxy)phenoxy]phenyl}-1H-pyrazole]
7 | 3.5 | 1080 | O=C1CC[C@H](Oc2ccc(Oc3ccc(-c4ccn[nH]4)cc3)cn2)CN1 [Example 6, (5S)-5-({5-[4-(1H-pyrazol-5-yl)phenoxy]pyridin-2-yl}oxy)piperidin-2-one]
8 | 0.5 | 280 | CN1CC(COc2ccc(Oc3ccc(-c4ccn[nH]4)cc3)cc2)CC1=O (centres unmarked) [Example 7, 1-methyl-4-({4-[4-(1H-pyrazol-5-yl)phenoxy]phenoxy}methyl)pyrrolidin-2-one]
9 | 0.5 | 222 | O=C1CCC(Oc2ccc(Oc3ccc(-c4ccn[nH]4)cc3)cc2)CN1 (centres unmarked) [Example 8, 5-{4-[4-(1H-pyrazol-5-yl)phenoxy]phenoxy}piperidin-2-one]
10 | 76.7 | ≥ 5000 | O=C1NCC[C@@H]1Oc1ccc(Oc2ccc(-c3ccn[nH]3)cc2)cc1 [Example 9, (3S)-3-{4-[4-(1H-pyrazol-5-yl)phenoxy]phenoxy}pyrrolidin-2-one]
11 | 0.2 | 126 | O=C1NC(COc2ccc(Oc3ccc(-c4ccn[nH]4)cc3)cc2)CO1 (centres unmarked) [Example 10, 4-({4-[4-(1H-pyrazol-5-yl)phenoxy]phenoxy}methyl)-1,3-oxazolidin-2-one]
12 | 1.3 | 573 | O=C1NCC(COc2ccc(Oc3ccc(-c4ccn[nH]4)cc3)cc2)O1 (centres unmarked) [Example 11, 5-({4-[4-(1H-pyrazol-5-yl)phenoxy]phenoxy}methyl)-1,3-oxazolidin-2-one]
13 | 0.1 | 104 | O=C1N[C@H](COc2ccc(Oc3ccc(-c4ccn[nH]4)cc3)cc2)CO1 [Example 12, (4R)-4-({4-[4-(1H-pyrazol-5-yl)phenoxy]phenoxy}methyl)-1,3-oxazolidin-2-one]
14 | 0.5 | 214 | O=C1CC[C@H](Oc2ccc(Oc3ccc(-c4cc[nH]n4)cc3)cc2)CN1 [Example 13, (5S)-5-{4-[4-(1H-pyrazol-3-yl)phenoxy]phenoxy}piperidin-2-one]
15 | 0.3 | 178 | O=C1CC[C@@H](Oc2ccc(Oc3ccc(-c4cc[nH]n4)cc3)cc2)CN1 [Example 14, (5R)-5-{4-[4-(1H-pyrazol-3-yl)phenoxy]phenoxy}piperidin-2-one]
16 | 0.3 | 150 | O=C1N[C@@H](COc2ccc(Oc3ccc(-c4ccn[nH]4)cc3)cc2)CO1 [Example 15, (4S)-4-({4-[4-(1H-pyrazol-5-yl)phenoxy]phenoxy}methyl)-1,3-oxazolidin-2-one]
17 | 1.5 | 425 | O=C1CC[C@@H](Oc2ccc(Oc3ccc(-c4ccn[nH]4)cn3)cc2)CN1 [Example 17, (5R)-5-(4-{[5-(1H-pyrazol-5-yl)pyridin-2-yl]oxy}phenoxy)piperidin-2-one]

Row | IC50 [1] [nM] | IC50 [2] [nM] | SMILES
18 | 0.8 | 581 | O=C1CC[C@@H](Oc2ccc(Cc3ccc(-c4ccn[nH]4)cc3)cc2)CN1 [Example 18, (5R)-5-{4-[4-(1H-pyrazol-5-yl)benzyl]phenoxy}piperidin-2-one]
19 | 1.9 | 554 | O=C1CC[C@@H](Oc2ccc(Oc3ccc(-c4ccn[nH]4)cc3)cn2)CN1 [Example 19, (5R)-5-({5-[4-(1H-pyrazol-5-yl)phenoxy]pyridin-2-yl}oxy)piperidin-2-one]
20 | 0.6 | 229 | O=C1N[C@@H](COc2ccc(Cc3ccc(-c4ccn[nH]4)cc3)cc2)CO1 [Example 20, (4S)-4-({4-[4-(1H-pyrazol-5-yl)benzyl]phenoxy}methyl)-1,3-oxazolidin-2-one]
21 | 0.7 | 813 | O=C1CCCN1CCOc1ccc(Oc2ccc(-c3ccn[nH]3)cc2)cc1 [Example 21, 1-(2-{4-[4-(lH-pyrazol-5-yl)phenoxy]phenoxy}ethyl)pyrrolidin-2-one]
22 | 0.2 | 179 | c1cc(-c2ccc(Oc3ccc(OCCN4CCOCC4)cc3)cc2)[nH]n1 [Example 22, 4-(2-{4-[4-(1H-pyrazol-5-yl)phenoxy]phenoxy}ethyl)morpholine]
23 | 0.7 | 529 | O=C1CCCN1CCCOc1ccc(Oc2ccc(-c3ccn[nH]3)cc2)cc1 [Example 23, 1-(3-{4-[4-(1H-pyrazol-5-yl)phenoxy]phenoxy}propyl)pyrrolidin-2-one]
24 | 0.2 | 123 | O=C1N[C@H](COc2ccc(Oc3ccc(-c4ccn[nH]4)cn3)cc2)CO1 [Example 24, (4R)-4-[(4-{[5-(1H-pyrazol-5-yl)pyridin-2-yl]oxy}phenoxy)methyl]-1,3-oxazolidin-2-one]
25 | 0.5 | 123 | c1cc(-c2ccc(Cc3ccc(OCCN4CCOCC4)cc3)cc2)[nH]n1 [Example 25, 4-(2-{4-[4-(1H-pyrazol-5-yl)benzyl]phenoxy}ethyl)morpholine]
26 | 1.2 | 2110 | Cn1ccnc1COc1ccc(Oc2ccc(-c3ccn[nH]3)cc2)cc1 [Example 26, 5-(4-{4-[(1-methyl-1H-imidazol-2-yl)methoxy]phenoxy}phenyl)-1H-pyrazole]
27 | 2.2 | 1840 | c1cc(-c2ccc(Oc3ccc(OCc4cnc[nH]4)cc3)cc2)[nH]n1 [Example 27, 5-{4-[4-(1H-imidazol-5-ylmethoxy)phenoxy]phenyl}-1H-pyrazole]
28 | 1.4 | ≥ 5000 | c1ccc2[nH]c(COc3ccc(Oc4ccc(-c5ccn[nH]5)cc4)cc3)nc2c1 [Example 28, 2-({4-[4-(1H-pyrazol-5-yl)phenoxy]phenoxy}methyl)-1H-benzimidazole]
29 | 4.9 | 2280 | c1cncc(CCOc2ccc(Oc3ccc(-c4ccn[nH]4)cc3)cc2)c1 [Example 29, 3-(2-{4-[4-(1H-pyrazol-5-yl)phenoxy]phenoxy}ethyl)pyridine]
30 | 65.6 | ≥ 5000 | c1coc(COc2ccc(Oc3ccc(-c4ccn[nH]4)cc3)cc2)c1 [Example 30, 5-{4-[4-(2-furylmethoxy)phenoxy]phenyl}-1H-pyrazole]
31 | 900 | ≥ 5000 | CC(Cc1ccccc1)Oc1ccc(Oc2ccc(-c3ccn[nH]3)cc2)cc1 (centres unmarked) [Example 31, 5-{4-[4-(1-methyl-2-phenylethoxy)phenoxy]phenyl}-1H-pyrazole]
32 | 360 | ≥ 5000 | CC(COc1ccc(Oc2ccc(-c3ccn[nH]3)cc2)cc1)c1ccccc1 (centres unmarked) [Example 32, 5-{4-[4-(2-phenylpropoxy)phenoxy]phenyl}-1H-pyrazole]
33 | 5.2 | 3360 | c1ccc(CCOc2ccc(Oc3ccc(-c4ccn[nH]4)cc3)cc2)nc1 [Example 33, 2-(2-{4-[4-(1H-pyrazol-5-yl)phenoxy]phenoxy}ethyl)pyridine]
34 | 1.5 | 2540 | c1cncc(COc2ccc(Oc3ccc(-c4ccn[nH]4)cc3)cc2)c1 [Example 34, 3-({4-[4-(1H-pyrazol-5-yl)phenoxy]phenoxy}methyl)pyridine]
